The results in this text go back to patent US20250066320A1, “Active Ingredients with Sialagogue and Tingling/Fizzy Effect, and Preparations Containing Same” (Symrise AG, priority 2021, published 2025).

The experiment in a line: Sensory tasting of the active ingredients (mouth-watering and/or tingling effect) by a trained expert panel. In kind it is in vivo, human. The note with it: for Sensory Rating: intensity of mouth-watering and/or tingling/fizzing effect (figure in brackets): 50 ppm. The procedure: The sensory tasting of the active ingredients according to the invention was carried out as follows: • (1) The active ingredients were each prepared in a 5% sugar solution or in an unflavored standard fondant mass. Fondant is the name for a soft, pasty sugar mass that is used to make various confectionery products. Fondant is made from water and sucrose as well as glucose syrup, invert sugar cream and/or sugar alcohols (e.g., sorbitol or mannitol). The mixture is boiled and then processed into a soft paste by kneading it vigorously and cooling it quickly. • (2) The concentration of the active ingredients was 25 or 50 ppm. • (3) The test samples were tested under practical conditions by a panel of experts with sensory training. For tasting, 3 to 7 tasters each rinsed their mouths with approx. 5 ml of the sugar solution and spat the solution out again. The mouth-watering and/or tingling effect was assessed on a scale of 1 (very weak) to 10 (very strong) and the profile evaluated.

The mark [1] stands for this setting: 25 ppm in 5% sugar solution or unflavored fondant mass, 3 to 7 tasters.
The mark [2] stands for this setting: 50 ppm in 5% sugar solution or unflavored fondant mass, 3 to 7 tasters.
[3] abbreviates: scale of 1 (very weak) to 10 (very strong).

Consider `CCCOc1ccc(C(=O)N2CCN(C/C=C/c3ccccc3)CC2)cc1OCCC` [Compound 1, [4-[(E)-cinnamyl]pi-perazin-1-yl]-(3,4-dipropoxy-phenyl)methanone], for which the “Sensory Rating (profile in words)” value under setting [1] is “astringent mouth-watering, Spilanthes effect”.
Turning to `COc1ccc(C(=O)N2CCN(C/C=C/c3ccccc3)CC2)cc1OC` [Compound 3, [4-[(E)-cinnamyl]piperazin-1-yl]-(3,4-dimethoxy-phenyl)methanone], the “Sensory Rating (profile in words)” value under setting [2] is given as “tingling/ fizzing”.
On the same count and under the same terms, the result for `COc1cc(C(=O)N2CCN(C/C=C/c3ccccc3)CC2)ccc1O` [Compound 4, [4-[(E)-cinnamyl]piperazin-1-yl]-(4-hydroxy-3-methoxy-phenyl)methanone] reads “balsamic”.
As to `COc1cc(C(=O)N2CCN(C/C=C/c3ccccc3)CC2)cc(OC)c1OC` [Compound 5, [4-[(E)-cinnamyl]piperazin-1-yl]-(3,4,5-trimethoxy-phenyl)methanone], the “Sensory Rating (profile in words)” value under setting [1] is “chocolaty, dusty, after cress”.
Still for that read-out and setting: under `CCCOc1ccc(C(=O)N2CCN(C/C=C/c3ccccc3)CC2)cc1OCCC` [Compound 6, [4-[(E)-cinnamyl]piperazin-1-yl]-(3,4-dipropoxy-phenyl)methanone] stands “bitter, light astringent”; under `CCOc1ccc(C(=O)N2CCN(CCCc3ccccc3)CC2)cc1OCC` [Compound 7, (3,4-Diethoxy-phenyl)-[4-(3-phenyl-propyl)piperazin-1-yl]methanone], “tingling/ fizzing, mouth-watering, slightly cooling”; under `CCOc1ccc(C(=O)N2CCN(Cc3ccccc3)CC2)cc1OCC` [Compound 8, (4-benzylpiperazin-1-yl)-(3,4-diethoxy-phenyl)methanone], “slightly tingling/ fizzing, slightly mouth-watering, slightly cooling”.
Same read-out and setting: under `COc1ccc(C(=O)N2CCN(C/C=C/c3ccccc3)CC2)cc1O` [Compound 9, [4-[(E)-cinnamyl]piperazin-1-yl]-(3-hydroxy-4-methoxy-phenyl)methanone] stands “sweet, after melon”; under `CC(C)Oc1ccc(C(=O)N2CCN(C/C=C/c3ccccc3)CC2)cc1OC(C)C` [Compound 10, [4-[(E)-cinnamyl]piperazin-1-yl]-(3,4-diisopropoxy-phenyl)methanone], “astringent, bitter”; under `CCOc1ccc(C(=O)N2CCN(CCCCc3ccccc3)CC2)cc1OCC` [Compound 11, (3,4-Diethoxy-phenyl)-[4-(4-phenyl-butyl)piperazin-1-yl]methanone], “tingling/ fizzing, like melon, astringent, mouth-watering”.
Consider `CCOc1ccc(C(=O)N2CCN(CCc3ccncc3)CC2)cc1OCC` [Compound 12, (3,4-Diethoxy-phenyl)-[4-[2-(4-pyridyl)ethyl]piperazin-1-yl] methanone], for which, under setting [1], the “Sensory Rating (profile in words)” value is recorded as “tingling/ fizzing, mouth-watering, ethanolic”.
Still for that read-out and setting: under `CCOc1ccc(C(=O)N2CCN(CCOc3ccccc3)CC2)cc1OCC` [Compound 13, (3,4-Diethoxy-phenyl)-[4-(2-phenoxyethyl)piperazin-1-yl] methanone] stands “strong tingling/ fizzing, mouth-watering,”.
Same read-out and setting: under `CCOc1ccc(C(=O)N2CCN(Cc3ccncc3)CC2)cc1OCC` [Compound 14, (3,4-Diethoxy-phenyl)-[4-(4-pyridyl-methyl)piperazin-1-yl]methanone] stands “slightly tingling/ fizzing, mouth-watering, burning,”; under `CCOc1ccc(C(=O)N2CCN(CCc3ccccc3)CC2)cc1OCC` [Compound 15, (3,4-Diethoxy-phenyl)-[4-(2-phenyl-ethyl)piperazin-1-yl]methanone], “Acid effect, tingling/ fizzing, mouth-watering, slightly salty”.
As for `O=C(c1ccccc1)N1CCN(CCCCc2ccccc2)CC1` [Compound 16, Phenyl-[4-(4-phenylbutyl)piperazin-1-yl]methanone], the “Sensory Rating (profile in words)” value was “slightly tingling/ fizzing” under setting [1]; “metallic taste, mouth-watering and tingling/ fizzing effect” under setting [2]. The “Sensory Rating: intensity of mouth-watering and/or tingling/fizzing effect (figure in brackets)” value under setting [3] was 2-3.
Turning to `O=C(c1ccccc1)N1CCN(C/C=C/c2ccccc2)CC1` [Compound 17, [4-[(E)-cinnamyl]piperazin-1-yl]-phenyl-methanone], under setting [2], the “Sensory Rating (profile in words)” value is listed as “slightly tingling/ fizzing, slightly honey-like”. The “Sensory Rating: intensity of mouth-watering and/or tingling/fizzing effect (figure in brackets)” value under setting [3] amounted to 3.
Turning to `O=C(c1ccccc1)N1CCN(CCc2ccccc2)CC1` [Compound 18, Phenyl-[4-(2-phenyl-ethyl)piperazin-1-yl]methanone], the “Sensory Rating (profile in words)” value reads like this: under setting [1], “no effect”; under setting [2], “slightly tingling/ fizzing and mouth-watering”. Also, the “Sensory Rating: intensity of mouth-watering and/or tingling/fizzing effect (figure in brackets)” value under setting [3] is given as 2-3.
Turning to `O=C(c1ccccc1)N1CCN(CCC2CCCCC2)CC1` [Compound 19, [4-(2-cyclo-hexylethyl)piperazin-1-yl]-phenyl-methanone], the “Sensory Rating (profile in words)” value was “fruity, slightly mouth-watering” under setting [1] and “of mushrooms, fruity, slightly metallic taste, slightly tingling/ fizzing” under setting [2]. Moreover, the “Sensory Rating: intensity of mouth-watering and/or tingling/fizzing effect (figure in brackets)” value under setting [3] was 1-2.
For `O=C(c1ccccc1)N1CCC(CCCc2ccccc2)CC1` [Compound 20, Phenyl-[4-(3-phenyl-propyl)-1-piperidyl]-methanone], the “Sensory Rating (profile in words)” value under setting [2] is on record as “slightly tingling/ fizzing (2), mouth-watering, Anthranilate- like, fruity note”. Further, the “Sensory Rating: intensity of mouth-watering and/or tingling/fizzing effect (figure in brackets)” value under setting [3] is “slightly tingling/ fizzing (2), mouth-watering, Anthranilate- like, fruity note”.
On to `O=C(c1ccccc1)N1CCN(CCCc2ccccc2)CC1` [Compound 21, Phenyl-[4-(3-phenylpropyl)piperazin-1-yl] methanone], for which the “Sensory Rating (profile in words)” value is “sweet, fruity, slightly tingling/ fizzing” under setting [1]; “slightly tingling/ fizzing and mouth-watering” under setting [2]. Under setting [3], the “Sensory Rating: intensity of mouth-watering and/or tingling/fizzing effect (figure in brackets)” value was 2-3.
As for `O=C(c1ccccc1)N1CCCN(CCc2ccccc2)CC1` [Compound 22, Phenyl-[4-(2-phenyl-ethyl)-1,4-diazepan-1-yl] methanone], the “Sensory Rating (profile in words)” value is “floral, linalool flavor” under setting [1]; “very light metallic taste, remarkably mouth-watering and tingling/ fizzing” under setting [2]. For the same compound, the “Sensory Rating: intensity of mouth-watering and/or tingling/fizzing effect (figure in brackets)” value under setting [3] is 4-5.
For `O=C(c1ccccc1)N1CCN(Cc2ccccc2)CC1` [Compound 23, (4-benzylpiperazin-1-yl)-phenyl-methanone], the “Sensory Rating (profile in words)” value under setting [2] is “Slightly floral taste, slightly metallic, not a pleasant taste, very slightly mouth-watering and tingling/fizzing”. Besides, the “Sensory Rating: intensity of mouth-watering and/or tingling/fizzing effect (figure in brackets)” value under setting [3] is listed as 3.
Turning to `CCOc1ccc(C(=O)N2CCN(CCC3CCCCC3)CC2)cc1OCC` [Compound 24, [4-(2-cyclo-hexylethyl)piperazin-1-yl]-(3,4-diethoxy-phenyl)methanone], under setting [2], the “Sensory Rating (profile in words)” value is given as “fruity taste (blueberries)”.
As for `CCOc1ccc(C(=O)N2CCC(CCCc3ccccc3)CC2)cc1OCC` [Compound 25, (3,4-Diethoxy-phenyl)-[4-(3-phenyl-propyl)-1-piperidyl]-methanone], the “Sensory Rating (profile in words)” value under setting [2] was “Very slightly tingling/fizzing (2-3), sharp, astringent”. The “Sensory Rating: intensity of mouth-watering and/or tingling/fizzing effect (figure in brackets)” value under setting [3] is listed as “Very slightly tingling/fizzing (2-3), sharp, astringent”.
On to `CCOc1ccc(C(=O)N2CCCN(CCc3ccccc3)CC2)cc1OCC` [Compound 26, (3,4-Diethoxy-phenyl)-[4-(2-phenyl-ethyl)-1,4-diazepan-1-yl]methanone], for which the “Sensory Rating (profile in words)” value under setting [2] is “Very slightly tingling/fizzing (1-2), and mouth-watering (weak)”. In addition, under setting [3], the “Sensory Rating: intensity of mouth-watering and/or tingling/fizzing effect (figure in brackets)” value was “Very slightly tingling/fizzing (1-2), and mouth-watering (weak)”.
For `COc1ccc(C(=O)N2CCN(CCCCc3ccccc3)CC2)cc1OC` [Compound 27, (3,4-Dimethoxy-phenyl)-[4-(4-phenyl-butyl)piperazin-1-yl]methanone], the “Sensory Rating (profile in words)” value under setting [2] is “slightly tingling/ fizzing (4-5), and mouth-watering, metallic after- taste, weakly burning”. Also, under setting [3], the “Sensory Rating: intensity of mouth-watering and/or tingling/fizzing effect (figure in brackets)” value was “slightly tingling/ fizzing (4-5), and mouth-watering, metallic after- taste, weakly burning”.
Consider `COc1ccc(C(=O)N2CCN(CCc3ccccc3)CC2)cc1OC` [Compound 28, (3,4-Dimethoxy-phenyl)-[4-(2-phenyl-ethyl)piperazin-1-yl]methanone], for which, for the setting “dosage 25 and 50 ppm, cell not split by dosage”, the “Sensory Rating (profile in words)” value is “slightly tingling/ fizzing (3) slightly metallic”. For the same compound, the “Sensory Rating: intensity of tingling/fizzing effect (figure in brackets)” value (dosage 25 and 50 ppm, cell not split by dosage, scale of 1 (very weak) to 10 (very strong)) was “slightly tingling/ fizzing (3) slightly metallic”.
For the compound `COc1ccc(C(=O)N2CCN(CCC3CCCCC3)CC2)cc1OC` [Compound 29, [4-(2-cyclo-hexylethyl)piperazin-1-yl]-(3,4-dimethoxy-phenyl)methanone], the “Sensory Rating (profile in words)” value under setting [2] was “slightly mouth-watering, slightly tingling/ fizzing (1-2), green note, light onion flavor”. Also, the “Sensory Rating: intensity of mouth-watering and/or tingling/fizzing effect (figure in brackets)” value under setting [3] is “slightly mouth-watering, slightly tingling/ fizzing (1-2), green note, light onion flavor”.
As for `COc1ccc(C(=O)N2CCC(CCCc3ccccc3)CC2)cc1OC` [Compound 30, (3,4-Dimethoxy-phenyl)-[4-(3-phenyl-propyl)-1-piperidyl]methanone], under setting [2], the “Sensory Rating (profile in words)” value is “very slight tingling/fizzing and mouth-watering, dry in the mouth”.
